1 substance from patent US10485874B2, “Hyaluronic acid modified by sphingosine-1-phosphoric acid” (priority 2014, dated 2019) can be followed below.

The test system of data set [1] is serum ALT. The data set can be described thus: Rat total liver ischemia/reperfusion model: serum ALT (liver function). The data set is classed as in vivo, Sprague-Dawley rats. The settings on record: 100 μg/kg in terms of S1P via tail vein 10 min before 20 min total liver ischemia. Here is the method:
(§1) Male Sprague-Dawley (hereinbelow, SD) rats, 200 to 250 g, were obtained from CLEA Japan, Inc. (Tokyo, Japan). Four groups of SD rats were studied.
(§2) A study was conducted for a methanol-administration group, where methanol was the solvent for S1P (the content of administration:methanol (50 μl)+3% BSA (150 μl), 200 μl in total), a HA-administration group (the content of administration: 8 kDa HA dissolved in methanol:ultrapure water=1:3 at 0.32564 g/l, 200 μl in total), an S1P-administration group (the content of administration: 100 μg/kg in terms of the dose of S1P, S1P (50 μl)+3% BSA (150 μl), 200 μl in total), a HA-S1P-administration group (the content of administration: 100 μg/kg in terms of the dose of S1P, the HA-S1P formulation prepared at Hokkaido University was dissolved in methanol:ultrapure water=1:3 at 0.358 g/l, 200 μl in total).
Each agent was injected into the tail vein of rats. Ten minutes after the injection, the hepatic artery, portal vein, and bile duct were occluded at once with microclips for 20 minutes. Upon completion of 20 minutes of total liver ischemia, the occlusion was released. For pathological examination, liver tissues were removed from 10 to 15 rats in each group 120 minutes after reperfusion. Also, blood was collected immediately before the injection of the agents and 30 minutes, 60 minutes, and 120 minutes after reperfusion.
In order to evaluate the injury of liver parenchyma, the serum ALT value was measured with an autoanalyzer (FUJI DRI-CHEM 7000V, Fujifilm, Tokyo, Japan).
Statistical analysis was conducted using the Kruskal Wallis H-test and the Mann-Whitney U test with Bonferroni correction as a post hoc test. Also, p< 0.05 was accepted to be indicative of statistical significance.
Using 200 to 250 g SD rats, four experimental groups (A) to (D) were prepared. […]

A short description of data set [2]: Accumulation of S1P in the liver by Western blot. It counts as in vivo, rat. The settings on record: Western blot with anti-S1P antibody; versus the S1P only sample. How it is done:
The expression of S1P in the liver tissues was confirmed by Western blot in accordance with the following method.
The rat liver tissues stored at −80° C. were homogenized in a buffer prepared from various reagents (150 mmol/L NaCl, 50 mM Tris-Cl, 1% NP-40, and a protease inhibitor). The resulting samples were centrifuged and the supernatants were collected for analysis. The samples thus obtained were separated using 10% SDS-PAGE gel and transferred to nitrocellulose membranes (Millipore, Bedford, Mass.). As the primary antibody, Anti-S1P antibody (ab140592) (1:1000, rabbit polyclonal, Abcam, Cambridge, UK) was used. As the secondary antibody, Anti-rabbit IgG, HRP-linked antibody (#7074S) (1:1000, Cell Signalling Technology, Beverley, Mass., USA) was used.
For orientation: A western blot detects proteins with antibodies after separation by electrophoresis.

Data set [3] has as its system TUNEL-positive cells. The data set can be described thus: Rat liver ischemia/reperfusion model: TUNEL staining of liver (apoptosis-positive cells). It counts as in vivo, Sprague-Dawley rats. Here is the method: as §1, §2
Each agent was injected into the tail vein of rats. Ten minutes after the injection, the hepatic artery, portal vein, and bile duct were occluded at once with microclips for 20 minutes. […]
Using DeadEnd® Colorimetric TUNEL System (G7360) supplied by Promega KK, apoptosis-positive cells were immunohistochemically detected. The tissue sections of each group were evaluated. The number of TUNEL-positive cells and the total number of hepatocytes were counted in 10 randomly selected high-power fields (400×) focusing on the portal vein. […]

For data set [4], the system named is sinusoid structure. The experiment in a line: Rat liver ischemia/reperfusion model: HE staining, pathological evaluation of liver. The data set is classed as in vivo, Sprague-Dawley rats. The settings on record: liver tissue 120 minutes after reperfusion; 200× field. How it is done: as §1, §2
Each agent was injected into the tail vein of rats. Ten minutes after the injection, the hepatic artery, portal vein, and bile duct were occluded at once with microclips for 20 minutes. Upon completion of 20 minutes of total liver ischemia, the occlusion was released. […]
The liver tissues were fixed in 10% buffered formalin, and then embedded in paraffin, followed by staining with hematoxylin and eosin. The tissue sections of each group were evaluated. […]

Data set [5] has as its system liver sinusoidal endothelial cells. The data set can be described thus: Rat liver ischemia/reperfusion model: electron microscopic evaluation of the microstructure of liver. The settings on record: liver excised 120 minutes after reperfusion. The data set is classed as in vivo, Sprague-Dawley rats. Here is the method: as §1, §2
Each agent was injected into the tail vein of rats. Ten minutes after the injection, the hepatic artery, portal vein, and bile duct were occluded at once with microclips for 20 minutes. Upon completion of 20 minutes of total liver ischemia, the occlusion was released. For pathological examination, liver tissues were removed from 10 to 15 rats in each group 120 minutes after reperfusion. […]
The liver sinusoidal endothelial cells after ischemia/reperfusion were evaluated with an electron microscopy. […]

The subject of data set [6] is HO-1. The data set can be described thus: Rat liver ischemia/reperfusion model: Western blot of HO-1 in liver tissue. The data set is classed as in vivo, Sprague-Dawley rats. The settings on record: liver tissue 120 minutes after reperfusion. How it is done: as §1, §2
(§3) Each agent was injected into the tail vein of rats. Ten minutes after the injection, the hepatic artery, portal vein, and bile duct were occluded at once with microclips for 20 minutes. Upon completion of 20 minutes of total liver ischemia, the occlusion was released. For pathological examination, liver tissues were removed from 10 to 15 rats in each group 120 minutes after reperfusion. Also, blood was collected immediately before the injection of the agents and 30 minutes, 60 minutes, and 120 minutes after reperfusion. […]

Data set [7] deals with cleaved caspase 3. The data set can be described thus: Rat liver ischemia/reperfusion model: Western blot of cleaved caspase 3 in liver tissue. It counts as in vivo, Sprague-Dawley rats. The note with it: liver tissue 120 minutes after reperfusion. Here is the method:
as §1, §2, §3

With “hyaluronic acid modified with sphingosine-1-phosphate [HA-S1P]”, the “serum ALT value” was “significantly lower” in data set [1] (30 minutes after reperfusion, versus vehicle and S1P groups); “significantly lower” in data set [1] (60 minutes after reperfusion, versus vehicle, HA and S1P groups); “significantly lower” in data set [1] (120 minutes after reperfusion, versus HA group). In addition, the “expression of S1P in the liver tissues” value in data set [2] is listed as “higher”. The “percentage of TUNEL-positive cells (TUNEL-positive cells/total number of hepatocytes)” value in data set [3] (400× fields centering around Zone 1, 10 fields per sample, 120 minutes after reperfusion) is recorded as “significantly low”. Further, the “TUNEL staining, positive cells” value in data set [3] (liver tissue 120 minutes after reperfusion) is on record as “positive cells were almost unobserved”. For the same substance, the “sinusoid structure (HE staining)” value in data set [4] is “sinusoid structure was maintained”. Further, the “microstructure of LSECs (electron microscopic images)” value in data set [5] was “undercoat structure of LSECs was maintained”. Moreover, in data set [6], the “expression of HO-1” value is “increased”. Further, the “expression of the apoptosis-related protein cleaved caspase 3” value in data set [7] is “inhibited”.
